Test results taken from patent US8617523B2, “Anti-biofilm carbonate compounds for use in oral care compositions” (Colgate-Palmolive Company, priority 2009, dated 2013).
Converted amounts (≈) assume the structure as drawn.

How the values were obtained:
[1] = tested on: A. naeslundii biofilm; test: crystal violet assay, anti-biofilm (MBEC); format: cell-based, Actinomyces naeslundii; conditions: single species of A. naeslundii biofilm
[2] = tested on: A. naeslundii; test: Minimal Inhibitory Concentration (MIC) anti-microbial test; format: cell-based; conditions: Actinomyces naeslundii; single species of A. naeslundii biofilm; read-out: MIC (Minimum Inhibitory Concentration, bactericidal)
Method: The anti-microbial test was measured according to the SOP No. ATO-5308-00 for determination of Minimal Inhibitory Concenctration (MIC).

SMILES | MBEC (Minimum Biofilm Eradication Concentration, anti-biofilm) [1] | MIC [2]
CC(C)C(O)C(C)(C)COC(=O)OC1CCCC1 (stereo not drawn) | 156 ppm | 625 µg/mL (≈ 2420 µM)
CC(CCCC(C)(C)O)CCOC(=O)Oc1ccccc1 (stereo not drawn) | 78 ppm | 156 µg/mL (≈ 530 µM)
CCCCC(CC)COC(=O)OCCCCCCO (stereo not drawn) | 39 ppm | 78 µg/mL (≈ 284 µM)
